Data as given in patent publication US6391857B1, “Methods and compositions for endothelial binding” (Stanford University, priority 1990, dated 2002).

What was measured:
antibody 1H10 = assay: Direct binding ELISA of antibody 1H10 to solid-phase neoglycoproteins; parameters: species or system mouse; details: 100 ng neoglycoprotein per well, antibody 10 μg/ml
Description: Synthetic glycoproteins were coated onto microtiter plates by filling each well with 100 ng of the neoglycoprotein in 100 μl of 0.15 M sodium chloride, 0.01 M sodium phosphate, 0.1% sodium azide, pH 7.4, (PBS-azide) overnight at 4° C. Standard enzyme-linked immunoassays (ELISA) were then performed on the solid phase carbohydrate structures using the appropriate antibody diluted to 10 μg/ml.

mouse LECAM-1 = target: T1, mouse LECAM-1 (Mus musculus, UniProt P18337); assay: Cell binding assay: mouse lymphocytes on coated synthetic glycoconjugates; format: cell-based; details: mesenteric lymph node lymphocytes, 3×10^6 cells in 0.15 ml
T1 construct: Mouse lymphocytes isolated from mesenteric lymph nodes were also tested; endogenous in cells; host or cells: primary mouse lymphocytes from mesenteric lymph nodes
T1 sequence (P18337 39-372): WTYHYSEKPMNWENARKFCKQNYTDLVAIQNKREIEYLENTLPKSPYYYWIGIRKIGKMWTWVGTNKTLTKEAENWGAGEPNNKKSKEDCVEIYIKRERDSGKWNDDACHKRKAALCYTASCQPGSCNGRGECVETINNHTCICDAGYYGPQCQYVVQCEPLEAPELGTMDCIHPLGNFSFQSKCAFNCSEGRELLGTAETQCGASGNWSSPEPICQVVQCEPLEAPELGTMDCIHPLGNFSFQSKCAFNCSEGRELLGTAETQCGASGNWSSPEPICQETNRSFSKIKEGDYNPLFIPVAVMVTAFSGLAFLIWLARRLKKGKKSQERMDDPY
Description: Cell binding assays. One hundred microliter samples of each synthetic glycoconjugate in phosphate buffered saline (PBS), pH7.2, were absorbed onto glass wells of 8-chamber slides (LabTek) for two hours at RT. After blocking with 5% NBS, 10 mM HEPES, Dulbecco's Modified Eagles Medium (DMEM), pH7.0 (CM), L1-2^LECAM-1, L1-2^vector or L1-2^ELAM-1 cells were applied to each well (1.5×10^6 cells in 0.15 ml CM). Mouse lymphocytes isolated from mesenteric lymph nodes were also tested at 3×10^6 cells in 0.15 ml. In some cases, cells were preincubated with monoclonal antibody MEL-14 (Gallatin et al., 1983, supra) at 150 μg/ml/10^7 cells and washed prior to testing. After a 25 minute incubation at RT on a rotating shaker at 50 rpm, the tops of the wells were removed and the slides washed 3× in DMEM and then fixed by incubation in 1.5% glutaraldehyde (Kodak) in DMEM. Three to six 100× fields were counted for each data point and the average and standard error are reported. Data reported are from representative experiments which were performed 2-5 times with similar results.

ELAM-1 = target: T2, ELAM-1 (Homo sapiens, UniProt P16581); assay: Cell binding assay: L1-2^ELAM-1 cells on glass slides coated with synthetic glycoconjugates; format: cell-based; details: 25 min RT, 50 rpm
T2 construct: expressed in transfected cells; host or cells: murine pre-B cell line L1-2, vector pMRB101 derivative (pMRB107), hCMV promoter
T2 sequence (P16581 22-610): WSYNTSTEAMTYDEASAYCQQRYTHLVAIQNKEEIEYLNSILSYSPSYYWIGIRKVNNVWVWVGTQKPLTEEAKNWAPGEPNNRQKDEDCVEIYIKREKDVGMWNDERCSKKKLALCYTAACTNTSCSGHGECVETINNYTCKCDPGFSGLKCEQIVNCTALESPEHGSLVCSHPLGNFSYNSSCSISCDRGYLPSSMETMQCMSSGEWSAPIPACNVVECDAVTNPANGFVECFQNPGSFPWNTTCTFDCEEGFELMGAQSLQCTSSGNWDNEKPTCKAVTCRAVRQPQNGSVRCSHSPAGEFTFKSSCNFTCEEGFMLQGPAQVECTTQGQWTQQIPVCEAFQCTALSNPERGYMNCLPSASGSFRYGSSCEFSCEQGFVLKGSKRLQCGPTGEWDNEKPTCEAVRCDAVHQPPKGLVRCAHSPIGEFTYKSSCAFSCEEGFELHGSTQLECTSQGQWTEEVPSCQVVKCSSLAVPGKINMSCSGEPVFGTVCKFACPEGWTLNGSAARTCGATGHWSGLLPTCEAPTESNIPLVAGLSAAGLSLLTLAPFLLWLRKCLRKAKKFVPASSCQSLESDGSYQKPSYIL
Description: L1-2/pMRB107 cells (L1-2^ELAM-1) were prepared by transfecting the ELAM-1 gene into the murine pre-B cell line L1-2 (Gallatin et al. (1983) Nature 35 304:30-34). A cDNA clone encoding ELAM-1 was obtained from a CDNA library made from activated human umbilical vein endothelial cell cultures by polymerase chain reaction amplification. The ELAM-1 gene was inserted downstream of the hCMV promoter in pMRB101 [a derivative of EE6 which contains the E. coli gpt gene (Mulligan and Berg (1981) Proc. Nat'l. Acad. Sci. USA 78:2072; Stephens and Corbett (1989) N.A.R. 17:7110)]. DNA was introduced into L1-2 cells by electroporation and the cells selected for resistance to mycophenolic acid. A population of cells staining brightly for ELAM-1 were selected by FACS and cloned by limiting dilution. These cells are ELAM-1^hi LFA-1^mod CD45^hi CD44^neg LECAM-1^neg, differing from the parent cell line or control vector transfectants only in their expression of ELAM-1. L1-2/pMRB101 (L1-2^vector) cells are a similarly transformed derivative of L1-2 transfected with pMRB101 and lacking ELAM-1 expression.
One hundred microliter samples of each synthetic glycoconjugate in phosphate buffered saline (PBS), pH 7.2, were absorbed onto glass wells of 8-chamber slides (LabTek) for two hours at RT. For some experiments glass slides were pre-coated with rabbit anti-human serum albumin (Sigma) at 200 μg/ml overnight at 4° C. and washed with PBS prior to the addition of the glycoconjugate. After blocking with 5% NBS/ 10 mM HEPES/Dulbecco's Modified Eagles Medium (DMEM), pH 7.0 (CM), L1-2^ELAM-1 or L1-2^vector cells were applied to each well (1.5×10^6/0.15 ml in CM). After a 25 minute incubation at RT on a rotating shaker at 50 rpm, the tops of the wells were removed and the slides washed 3× in DMEM and then fixed by incubation in 1.5% glutaral-dehyde (Kodak)/DMEM. Three to six 100× fields were counted for each data point and the average and standard error are reported. Data reported are from representative experiments which were performed 2-5 times with similar results.

| Substance | direct binding of antibody 1H10 to neoglycoprotein (antibody 1H10) | binding of mouse lymphocytes to coated neoglycoconjugate (mouse LECAM-1) | binding of L1-2^ELAM-1 cells to coated glycoconjugate (ELAM-1) |
| --- | --- | --- | --- |
| Neu5Acα2-3Galβ1-3GlcNAcβ1-3Galβ1-4(Glc) [LSTa] | weakly crossreacts | not | did not bind |
| Neu5Acα2-6Galβ1-4GlcNAcβ1-3Galβ1-4(Glc) [LSTc] | – | – | did not bind |
| NeuNAc α2-6Gal βl-4 (Glc) [6′SL] | – | not | did not bind |
| NeuNAc α2-3Gal βl-4 (Glc) [3′SL] | – | not | did not bind |
